Here are results for one molecule from patent US20190352288A1, “MATRIX METALLOPROTEINASE (MMP) INHIBITORS AND METHODS OF USE THEREOF” (Foresee Pharmaceuticals Co., Ltd., priority 2018, published 2019).

SMILES strings stand for the structures. Entries after “also recorded” stand apart in the source; their conditions may differ.

One experiment deals with T1, recombinant human MMP-2 (Homo sapiens, UniProt P08253).
T1 sequence (P08253 110-660): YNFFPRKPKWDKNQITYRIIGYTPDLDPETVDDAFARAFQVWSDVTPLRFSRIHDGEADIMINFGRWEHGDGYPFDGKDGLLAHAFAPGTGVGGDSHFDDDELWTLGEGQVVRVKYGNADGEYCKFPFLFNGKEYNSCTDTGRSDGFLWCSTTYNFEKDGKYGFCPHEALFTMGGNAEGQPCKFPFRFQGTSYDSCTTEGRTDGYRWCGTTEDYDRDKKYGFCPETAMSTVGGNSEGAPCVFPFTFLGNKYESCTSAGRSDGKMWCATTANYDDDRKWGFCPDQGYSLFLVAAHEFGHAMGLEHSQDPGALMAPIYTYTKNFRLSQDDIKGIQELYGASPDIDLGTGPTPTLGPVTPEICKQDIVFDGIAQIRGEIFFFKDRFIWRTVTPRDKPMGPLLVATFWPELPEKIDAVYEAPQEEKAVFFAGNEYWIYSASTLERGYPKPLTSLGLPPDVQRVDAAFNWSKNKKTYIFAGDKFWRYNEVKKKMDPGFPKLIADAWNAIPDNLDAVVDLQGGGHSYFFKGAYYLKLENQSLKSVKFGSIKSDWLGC
The experiment can be described thus: MMP selectivity assay, MMP-2. Format: biochemical. The settings on record: Table 2 selectivity profile. The procedure: The inhibitory effect of compounds on the rate of cleaving fluorogenic MMP substrate (Enzo, BML-P128) by recombinant human MMP-12 catalytic domain (Enzo, BML-SE138) was carried out by methods known in the art. Briefly, to each well of a 96-well black opaque plate, all the reagents were sequentially added by pipetting, and the final reaction contained 4 nM of recombinant human MMP-12 catalytic domain, 4 μM of fluorogenic MMP substrate, and various concentrations (0.15 nM to 10,000 nM) of tested compound dilutions in HEPES buffer (pH 7.5) containing 10 mM of CaCl2), 0.01% Brij® 35 (polyoxyethylene (23) lauryl ether), and 0.1 mg/ml of BSA.
The enzyme and compounds were pre-incubated on a shaker to mix in wells. After an hour of mixing, fluorogenic substrate was added to each well. Reaction without enzyme was used as a blank control in the plate. The plate was then fed into a plate reader to measure fluorescence intensity at Excitation/Emission wavelengths of 340 nm/440 nm every 10 mins for at least 1 hour at 37° C. The IC50 of each compound in MMP-12 inhibition was determined by using a readout obtained at time point 30 minutes.
The MMP selectivity assay was performed by using other recombinant human MMPs, including MMP-1, MMP-2, MMP-3, MMP-7, MMP-8, MMP-9, MMP-10, MMP-13, and MMP-14. The IC50 of the compounds for the other recombinant human MMPs was determined as described above in Example 1, and are shown in Table 2.

Experiment [1] has as its system SD rat kidney fibrosis model by unilateral ureteral occlusion (UUO). The experiment in a line: Efficacy study on SD rat kidney fibrosis model by unilateral ureteral occlusion (UUO). Format: in vivo, Sprague Dawley (SD) rats. The procedure:
This study was to evaluate the therapeutic efficacy of MMP-12 inhibitor, PC-16 on a renal fibrosis model by unilateral ureteral occlusion (UUO). Male Sprague Dawley (SD) rats (180-220 g, n=71) were used in this study. Animals were randomly divided into 4 groups: vehicle group (group-1, n=8), PC-16 2 mg/kg/day group (group-2, n=9), PC-16 6 mg/kg/day group (group-3, n=10), PC-16 20 mg/kg/day group (group-4, n=9). Animals were anesthetized with 2.5% isoflurane inhelation. The left ureter was ligated to create a unilateral ureteral occlusion (UUO) model to induce renal fibrosis. The test article, PC-16 was administrated twice a day via oral delivery after modeling for 14 days. Peripheral blood serum was prepared at pre-modeling and day-15 (one day after last dosing). All animals were euthanized and processed for left kidney pathology studies.
Animals: Gender: Male, SD rats, 180-220 g, total 71. Certificate: 11400700272659, Beijing Vital River Laboratory Animal Technology Co., Ltd., China. Animal holding: Animals were maintained in a temperature-controlled environment with a 12 hours light/12 hours dark cycle and free access to food and water. Experimental procedures were performed according to IACUC guidelines in the KCI (SuZhou) Biotech Inc. (KCI) animal research facility. Model creation: Total […] male SD rats were used in this study. After anesthesia with 2.5% isoflurane inhalation the animal abdomen was opened surgically. The left ureter was exposed and ligated close to the bladder to create the UUO model. After confirming no bleeding, the abdomen wall was closed in layers. The animals were maintained under temperature controlled pad (37° C.) for the recovery from anesthesia, and then were transferred to holding cages with regular food and water.
Experiment grouping: UUO modeling animals were divided into 7 groups randomizedly as vehicle (group-1, n=8), PC-16 2 mg/kg/day (group-5, n=9), PC-16 6 mg/kg/day (group-6, n=10), PC-16 20 mg/kg/day (group-7, n=9) (Table 4.1). Dosing regimen: All test articles were designed as an oral administration via a gastric perfusion. Test articles were designed to be delivered twice a day starting on the same day of modeling for 14 days (Table 4.1). Endpoints: 1) Blood collection: Peripheral blood was collected from all animals in each group and prepared for serum at pre-modeling and day-15 (one day after last dosing), stored at −80° C. All animals were euthanized according to KCI SOP. After confirming animal death without breath and heart bite the left kidneys were perfused with cold PBS followed by 10% neutral formalin and collected for further pathology study. 2) Detection of serum BUN and creatinine: The serum BUN and creatinine level were detected with Hitachi 7060 automatic biochemical analyzer and related test kits. 3) Kidney pathology examination: 3a) Kidney H&E staining and analysis: Following KCI's pathologic SOP all left kidneys were fixed in 10% formalin for at least 24 h at room temperature. After fixation, the kidney was cut longitudinally to get the largest surface and dehydrated in graded ethanol, cleared in xylene, and embedded in paraffin. Thin sections (3-μm) were mounted on glass slides, dewaxed, rehydrated to distilled water, and stained with hematoxylin and eosin (H&E). All stained slides were scanned with NanoZoomer Digital Pathology (S210, Hamamaci, Japan) scanner. Semi quantitative evaluation of the degree of tubular epithelial flattening and dilatation were graded from 0-5 according to the percentage of tubular involvement: score 0=no damage; score 1=1-10% damage; score 2=10-25% damage; score 3=25-50% damage; score 4=50-75% damage; score 5=75-100% damage. Semi quantitative evaluation of the tubular necrosis is graded from 0 to 3 according to the percentage of tubular involvement: score 0=no necrosis; score 1=<25% necrosis; score 2=25-50% necrosis; score 3=>50% necrosis. The average of tubular flattening and dilatation and necrosis as the total tubular damage was presented. […]

The mark [2] stands for this setting: UUO rats, 20 mg/kg/day (p<0.05).

In general, IC50 refers to the concentration that gives 50% inhibition. Consider `Cc1cc(COc2ccc(Sc3ccncc3C3NC(=O)NC3=O)cc2)ccn1` (stereo not drawn) [PC-16], for which the IC50 at recombinant human MMP-2 lay in the range of 0.1 to 1 µM. The “collagen-IV deposition in cortex area of left kidney (IHC)” value in experiment [1] (UUO rats, 6 mg/kg/day (P<0.05)) was “significant reduction in collagen-IV deposition”; in experiment [1] (setting [2]) it was “significant reduction in collagen-IV deposition”. Moreover, the “interstitial fibrosis score in cortex” value is “significant reduction in the fibrosis score” in experiment [1] (UUO rats, 20 mg/kg/day (p<0.001)) and “significant reduction in the fibrosis score” in experiment [1] (UUO rats, all dose groups (2, 6, 20 mg/kg/day), dose dependent). In experiment [1] (setting [2]), the “collagen-I deposition in cortex area of left kidney (IHC)” value is “significant reduction in collagen-I deposition”. In addition, the “serum blood urea nitrogen (BUN) elevation vs vehicle/model group” value in experiment [1] (UUO rats, 20 mg/kg/day oral bid 14 days, day-15, 20 mg/kg/day) is given as “slightly limit the blood urea nitrogen (BUN) elevation; also recorded: did not show a statistically significant difference”. Also, in experiment [1] (UUO rats, 2, 6, 20 mg/kg/day oral bid 14 days, 20 more effective than 2 mg/kg/day (p<0.01)), the “left kidney tubular damage (renal tubular damage score)” value was “clear dose dependent effect”. In addition, the “interstitial inflammation in cortex (semi quantitative score)” value in experiment [1] (UUO rats, 2, 6, 20 mg/kg/day oral bid 14 days, dose dependent) was “significant reduction”.
